Experimental findings from patent US20240208968A1, “ALPHA V BETA 6 AND ALPHA V BETA 1 INTEGRIN INHIBITORS AND USES THEREOF” (DiCE Molecules SV, Inc., priority 2021, published 2024) are described below.

Where a name gives a salt, the structure may show the parent alone.

One assay has as its target αvβ1 (Homo sapiens, UniProt P05556+P06756). Description: Solid Phase Integrin αvβ1 Assay. The format is binding. The protocol:
(§1) The compounds exemplified in this document were tested for their ability to inhibit αvβ1 and αvβ6 in below described solid phase integrin assays.
Solid Phase Integrin αvβ1 Assay
96-well microtiter plates (4 HBX Immulon; Thermo Fisher Scientific, Waltham, MA) were coated with 100 μL/well of 1 μg/mL recombinant TGFb1-LAP in TBS at 4° C., overnight. The coating solution was removed, and plates were blocked with 200 μL/well of blocking and binding buffer (2% BSA/TBST, 1 mM MnCl2) at room temperature for 1 hr. Blocking buffer was removed and 50 μL of binding buffer and testing compounds were added. 50 μL of diluted αvβ1 (0.2 ug/mL in binding buffer) was added to wells (100 μL/well total) for and plates incubated for 90 min at room temperature. Wells were washed thrice with washing buffer (TBS, 0.05% Tween, 1 mM MnCl2) and plates were incubated with 100 μL/well of a 1:12500 dilution of streptavidin-horseradish peroxidase conjugate (Thermo Fisher Scientific) in binding buffer for 20 min at room temperature. Bound protein was detected using the substrate TMB. The IC50 values for testing compounds were calculated by Levenberg-Marquardt four parameter fitting logistics.

Another assay addresses αvβ6 (Homo sapiens, UniProt P06756+P18564). Nature of the assay: Solid Phase Integrin αvβ6 Assay. The format is binding. The protocol: as §1
Solid Phase Integrin αvβ6 Assay
96-well microtiter plates (4 HBX Immulon; Thermo Fisher Scientific, Waltham, MA) were coated with 100 μL/well of 1 μg/mL recombinant TGFb1-LAP in TBS at 4° C., overnight. The coating solution was removed, and plates were blocked with 200 μL/well of blocking and binding buffer (2% BSA/TBST, 1 mM MnCl2) at room temperature for 1 hr. Blocking buffer was removed and 50 uL of binding buffer and testing compounds were added. 50 μL of diluted αvβ6 (0.2 μg/mL in binding buffer) was added to wells (100 uL/well total) and plates incubated for 1 hr at room temperature. Wells were washed thrice with washing buffer (TBS, 0.05% Tween, 1 mM MnCl2) and plates were incubated with 100 μL/well of a 1:12500) dilution of streptavidin-horseradish peroxidase conjugate (Thermo Fisher Scientific) in binding buffer for 20 min at room temperature. Bound protein was detected using the substrate TMB. The IC50 values for testing compounds were calculated by Levenberg-Marquardt four parameter fitting logistics.

αvβ6, sequence (P06756 31-992 limits assumed): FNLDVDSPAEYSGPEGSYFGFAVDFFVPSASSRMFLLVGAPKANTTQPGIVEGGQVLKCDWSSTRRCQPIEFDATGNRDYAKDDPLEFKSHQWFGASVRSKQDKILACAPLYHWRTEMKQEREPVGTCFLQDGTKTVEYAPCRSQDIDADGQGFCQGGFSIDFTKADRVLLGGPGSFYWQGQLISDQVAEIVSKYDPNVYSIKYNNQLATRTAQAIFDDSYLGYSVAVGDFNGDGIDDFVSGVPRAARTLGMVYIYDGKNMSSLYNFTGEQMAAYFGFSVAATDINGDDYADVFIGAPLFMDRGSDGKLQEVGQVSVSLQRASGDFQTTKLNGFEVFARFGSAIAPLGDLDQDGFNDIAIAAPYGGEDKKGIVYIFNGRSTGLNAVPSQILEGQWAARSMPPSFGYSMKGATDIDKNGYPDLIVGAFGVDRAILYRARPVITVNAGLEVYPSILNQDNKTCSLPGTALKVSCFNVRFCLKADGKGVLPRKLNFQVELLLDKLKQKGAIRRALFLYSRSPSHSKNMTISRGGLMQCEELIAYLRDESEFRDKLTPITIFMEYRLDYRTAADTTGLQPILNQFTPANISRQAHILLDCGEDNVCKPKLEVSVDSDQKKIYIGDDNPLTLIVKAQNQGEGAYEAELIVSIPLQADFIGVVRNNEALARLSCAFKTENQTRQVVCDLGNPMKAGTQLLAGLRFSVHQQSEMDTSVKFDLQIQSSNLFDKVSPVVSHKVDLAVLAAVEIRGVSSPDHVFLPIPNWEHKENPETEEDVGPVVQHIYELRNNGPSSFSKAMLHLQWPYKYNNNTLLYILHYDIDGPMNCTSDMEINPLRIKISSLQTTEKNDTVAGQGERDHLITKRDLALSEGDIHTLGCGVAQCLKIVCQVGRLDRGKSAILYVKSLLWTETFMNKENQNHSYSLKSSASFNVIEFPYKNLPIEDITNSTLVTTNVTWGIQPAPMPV
αvβ6, sequence (P18564 22-707 limits assumed): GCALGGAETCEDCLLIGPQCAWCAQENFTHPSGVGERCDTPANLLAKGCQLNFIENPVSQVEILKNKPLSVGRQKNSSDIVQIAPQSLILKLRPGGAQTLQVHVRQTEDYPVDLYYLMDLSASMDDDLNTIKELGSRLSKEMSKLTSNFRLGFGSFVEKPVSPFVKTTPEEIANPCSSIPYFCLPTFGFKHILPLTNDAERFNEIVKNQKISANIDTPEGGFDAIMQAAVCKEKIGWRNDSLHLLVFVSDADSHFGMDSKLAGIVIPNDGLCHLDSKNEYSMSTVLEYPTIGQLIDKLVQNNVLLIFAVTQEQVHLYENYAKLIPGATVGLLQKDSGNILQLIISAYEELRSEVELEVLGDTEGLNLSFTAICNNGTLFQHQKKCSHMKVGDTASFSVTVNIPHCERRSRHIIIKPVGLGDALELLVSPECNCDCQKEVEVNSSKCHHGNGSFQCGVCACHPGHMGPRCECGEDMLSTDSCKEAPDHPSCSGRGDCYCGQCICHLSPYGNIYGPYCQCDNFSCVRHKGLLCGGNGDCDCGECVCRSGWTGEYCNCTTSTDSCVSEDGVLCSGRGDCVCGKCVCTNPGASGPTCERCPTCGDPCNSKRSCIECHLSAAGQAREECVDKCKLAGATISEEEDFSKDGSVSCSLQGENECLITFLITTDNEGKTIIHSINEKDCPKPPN
αvβ1, sequence (P06756 31-992 limits assumed): as the sequence (P06756 31-992 limits assumed) above
αvβ1, sequence (P05556 21-728 limits assumed): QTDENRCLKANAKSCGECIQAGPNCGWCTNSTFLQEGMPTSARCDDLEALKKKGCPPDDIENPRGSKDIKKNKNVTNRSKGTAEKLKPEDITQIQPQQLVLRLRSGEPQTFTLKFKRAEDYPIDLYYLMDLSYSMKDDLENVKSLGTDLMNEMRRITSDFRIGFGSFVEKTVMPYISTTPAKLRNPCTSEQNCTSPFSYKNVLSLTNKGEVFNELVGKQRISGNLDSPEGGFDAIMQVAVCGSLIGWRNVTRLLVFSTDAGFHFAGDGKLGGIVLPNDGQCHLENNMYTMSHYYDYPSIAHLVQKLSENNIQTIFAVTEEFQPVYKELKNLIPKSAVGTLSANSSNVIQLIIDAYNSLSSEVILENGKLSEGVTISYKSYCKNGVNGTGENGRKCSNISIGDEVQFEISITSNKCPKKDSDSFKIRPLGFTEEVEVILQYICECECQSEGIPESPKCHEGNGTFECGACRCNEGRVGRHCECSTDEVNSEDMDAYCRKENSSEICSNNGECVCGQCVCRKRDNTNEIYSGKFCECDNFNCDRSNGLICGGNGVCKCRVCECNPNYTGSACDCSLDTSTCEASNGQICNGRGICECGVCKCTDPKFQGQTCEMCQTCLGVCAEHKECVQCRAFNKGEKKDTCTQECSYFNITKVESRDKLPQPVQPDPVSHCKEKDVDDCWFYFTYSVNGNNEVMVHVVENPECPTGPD

For orientation: IC50 means the point on the concentration scale where inhibition reaches its midpoint. Lower therefore signals higher potency. For `O=C(NC[C@@H](C(=O)O)c1cccc2cnn([C@@H]3CCOC3)c12)[C@@H]1CCCN(CCCc2ccc3c(n2)NCCC3)C1` [Compound 322], the IC50 at αvβ1 is 100 to 1000 nM; at αvβ6 it was more than 1000 nM.

Turning to `O=C(O)[C@@H](CCO[C@@H]1CCCN(CCCc2ccc3c(n2)NCCC3)C1)NC(=O)[C@@H]1CCCN1S(=O)(=O)c1ccccc1` [Compound 495], the figures for the half-inhibitory concentration (IC50) on αvβ1 and against αvβ6 were less than 100 nM and more than 1000 nM, respectively.

For the molecule `O=C(NC[C@H](C(=O)O)c1cccc(N2C[C@H]3CC[C@@H]2CO3)c1)[C@@H]1CCCN(CCCc2ccc3c(n2)NCCC3)C1` [Compound 565], the IC50 at αvβ1 and at αvβ6 was less than 100 nM each time.

For the molecule `O=C(O)CC(CO[C@@H]1CCCN(CCCc2ccc3c(n2)NCCC3)C1)c1ccccc1` (stereo partly drawn) [Compound 297, 3-phenyl-4-(((R)-1-(3-(5,6,7,8-tetrahydro-1,8-naphthyridin-2-yl)propyl)piperidin-3-yl)oxy)butanoic acid hydrochloride], the IC50 on αvβ1 and against αvβ6 was less than 100 nM in each case.

In the case of `O=C(N[C@@H](CCO[C@@H]1CCCN(CCCc2ccc3c(n2)NCCC3)C1)C(=O)O)c1c(F)cc(N2CCOCC2)cc1F` [Compound 467], the IC50 against αvβ1 and on αvβ6 was less than 100 nM throughout.

As to `O=C(O)[C@@H](CCO[C@@H]1CCCN(Cc2ccc3c(n2)NCCC3)C1)Nc1ncnc2ccccc12` [Compound 407], the IC50 against αvβ1 and against αvβ6 was more than 1000 nM each time.

Consider `O=C(O)C[C@H](NC(=O)[C@H]1CCCN(C(=O)CCc2ccc3c(n2)NCCC3)C1)c1ccccc1` [Compound 286, (S)-3-phenyl-3-((S)-1-(3-(5,6,7,8-tetrahydro-1,8-naphthyridin-2-yl)propanoyl)piperidine-3-carboxamido)propanoic acid hydrochloride], for which the half-inhibitory concentration (IC50) against αvβ1 and against αvβ6 was more than 1000 nM in each case.

Take `CN(C[C@@H]1CCCN(CCCc2ccc3c(n2)NCCC3)C1)[C@@H](CC(=O)O)c1cccc(Br)c1` [Compound 532]: the IC50 against αvβ1 and on αvβ6 was more than 1000 nM each time.

Regarding `C[C@@H]1C[C@H](C(=O)NC[C@H](C(=O)O)c2cccc(-c3ccccc3)c2)CN(CCCc2ccc3c(n2)NCCC3)C1` [Compound 637], the IC50 against αvβ1 is 100 to 1000 nM; at αvβ6, less than 100 nM.

Take `O=C(O)[C@H](CO[C@@H]1CCCN(Cc2ccc3c(n2)NCCC3)C1)c1ccccc1` [Compound 396]: the concentration for half-maximal inhibition (IC50) against αvβ1 and against αvβ6 was more than 1000 nM each time.

As for `C[C@@H]1C[C@H](C(=O)NC[C@H](C(=O)O)c2ccc3ccccc3c2)CN(CCCc2ccc3c(n2)NCCC3)C1` [Compound 634], the IC50 on αvβ1 and against αvβ6 was 100 to 1000 nM each time.

Take `O=C(O)C[C@H](NC(=O)[C@@H]1CCCN(CCCCc2ccc3c(n2)NCCC3)C1)c1ccccc1` [Compound 288, (S)-3-phenyl-3-((R)-1-(4-(5,6,7,8-tetrahydro-1,8-naphthyridin-2-yl)butyl)piperidine-3-carboxamido)propanoic acid hydrochloride]: the IC50 is 100 to 1000 nM on αvβ1 and less than 100 nM against αvβ6.

Turning to `O=C(O)[C@@H](CO[C@@H]1CCCN(CCCCc2ccc3c(n2)NCCC3)C1)c1ccccc1` [Compound 394], the half-inhibitory concentration (IC50) against αvβ1 and at αvβ6 was more than 1000 nM throughout.

For the molecule `O=C(NC[C@@H](C(=O)O)c1cccc(Br)c1)[C@@H]1CCCN(CCCc2ccc3c(n2)NCCC3)C1` [Compound 302], the IC50 against αvβ1 and against αvβ6 was less than 100 nM in each case.

For `O=C(O)[C@H](CCO[C@@H]1CCCN(CCCc2ccc3c(n2)NCCC3)C1)NC(=O)C12CCC(CC1)CC2` [Compound 333], the IC50 at αvβ1 and at αvβ6 was 100 to 1000 nM in each case.

For `O=C(CC[C@@H](NC(=O)[C@H]1CCCN1S(=O)(=O)c1ccccc1)C(=O)O)N[C@H]1CCN(CCCCc2ccc3c(n2)NCCC3)C1` [Compound 436], the values for the IC50 against αvβ1 and against αvβ6 were 100 to 1000 nM and more than 1000 nM, respectively.

With `C[C@H]1OCCN(c2cccc([C@H](CC(=O)O)NC(=O)[C@@H]3CCCN(CCCc4ccc5c(n4)NCCC5)C3)c2)[C@H]1C` [Compound 582], the IC50 at αvβ1 and against αvβ6 was less than 100 nM each time.

Consider `Cc1cc([C@H](CO[C@@H]2CCCN(CCCc3ccc4c(n3)NCCC4)C2)CC(=O)O)cc(N2CCOC(C)(C)C2)c1` [Compound 581], for which the IC50 at αvβ1 and at αvβ6 was 100 to 1000 nM in each case.

For the molecule `O=C(O)C[C@@H](CO[C@@H]1CCCN(CCCc2ccc3c(n2)NCCC3)C1)c1cncc(C2CC2)c1` [Compound 513], the IC50 at αvβ1 and on αvβ6 was less than 100 nM in each case.

Take `O=C(O)C[C@@H](CO[C@@H]1CCCN(CCCc2ccc3c(n2)NCCC3)C1)c1cccc(N2CCCC2=O)c1` [Compound 504]: the IC50 against αvβ1 and against αvβ6 was less than 100 nM throughout.

`O=C(O)C[C@@H](CC[C@@H]1CCCN(CCCc2ccc3c(n2)NCCC3)C1)c1ccccc1` [Compound 298-A, 3-phenyl-5-((R)-1-(3-(5,6,7,8-tetrahydro-1,8-naphthyridin-2-yl)propyl)piperidin-3-yl)pentanoi c acid]: the IC50 at αvβ1 is less than 100 nM; at αvβ6, 100 to 1000 nM.

On to `COC(C)(C)C1Cc2c(cccc2C(CNC(=O)[C@@H]2CCCN(CCCc3ccc4c(n3)NCCC4)C2)C(=O)O)CO1` (some centres unmarked) [Compound 538], for which the IC50 at αvβ1 and on αvβ6 was less than 100 nM in each case.

For the molecule `O=C(O)[C@@H](CCO[C@@H]1CCCN(CCCCc2ccc3c(n2)NCCC3)C1)Nc1ncnc2ccccc12` [Compound 405], the IC50 against αvβ1 is 100 to 1000 nM; against αvβ6, less than 100 nM.

Turning to `O=C(NC[C@@H](C(=O)O)c1ccccc1-c1ccccc1)[C@@H]1CCCN(CCCc2ccc3c(n2)NCCC3)C1` [Compound 340], the IC50 at αvβ1 and on αvβ6 was 100 to 1000 nM throughout.

Regarding `Cc1csc2c(N[C@@H](CCO[C@@H]3CCCN(CCCc4ccc5c(n4)NCCC5)C3)C(=O)O)ncnc12` [Compound 471], the IC50 against αvβ1 and on αvβ6 was 100 to 1000 nM each time.

Consider `O=C(NC[C@H](C(=O)O)c1cc(F)cc(-c2ccccc2)c1)[C@@H]1CCCN(CCCc2ccc3c(n2)NCCC3)C1` [Compound 306], for which the IC50 against αvβ1 and against αvβ6 was 100 to 1000 nM each time.

For `O=C(O)C[C@H](NC(=O)[C@@H]1CCCN(CCCc2ccc3c(n2)NCCC3)C1)c1cccc(C2CC2)c1` [Compound 224, (S)-3-(3-Cyclopropylphenyl)-3-((R)-1-(3-(5,6,7,8-Tetrahydro-1,8-Naphthyridin-2-YI)Propyl)Piperidine-3-Carboxamido)Propanoic Acid hydrochloride], the IC50 against αvβ1 and on αvβ6 was less than 100 nM throughout.

As to `C[C@H]1CC[C@@H](C(=O)N[C@@H](CC(=O)O)c2ccccc2)CN1CCCc1ccc2c(n1)NCCC2` [Compound 554], the IC50 is more than 1000 nM at αvβ1 and 100 to 1000 nM against αvβ6.

For `O=C(N[C@@H](CNC(=O)[C@@H]1CCCN(CCCc2ccc3c(n2)NCCC3)C1)C(=O)O)c1cc(Cl)cc(Cl)c1` [Compound 363], the IC50 against αvβ1 and on αvβ6 was less than 100 nM in each case.

As to `O=C(O)C[C@@H](NC(=O)[C@@H]1CCCN(CCCc2ccc3c(n2)NCCC3)C1)c1cc(F)cc(C2CC2)c1` [Compound 347], the IC50 at αvβ1 and against αvβ6 was less than 100 nM each time.

Regarding `Cc1cc(C)n(-c2cccc([C@H](CC(=O)O)NC(=O)[C@@H]3CCCN(CCCc4ccc5c(n4)NCCC5)C3)c2)c1` [Compound 586], the IC50 against αvβ1 and against αvβ6 was less than 100 nM in each case.

Regarding `CN1CCc2cc(S(=O)(=O)N[C@H](CNC(=O)[C@@H]3CCCN(CCCc4ccc5c(n4)NCCC5)C3)C(=O)O)ccc21` [Compound 450], the IC50 against αvβ1 was more than 1000 nM; at αvβ6, 100 to 1000 nM.

`O=C(N[C@@H](CNC(=O)[C@@H]1CCCN(CCCc2ccc3c(n2)NCCC3)C1)C(=O)O)c1ccncc1` [Compound 312]: the IC50 against αvβ1 and against αvβ6 was less than 100 nM each time.

As for `O=C(NC[C@H](C(=O)O)c1cccc(Oc2ccccc2)c1)[C@@H]1CCCN(CCCc2ccc3c(n2)NCCC3)C1` [Compound 251-B], the IC50 at αvβ1 and against αvβ6 was less than 100 nM in each case.

On to `O=C(CC[C@H](NC(=O)C12CCC(CC1)CC2)C(=O)O)N[C@@H]1CCN(C(=O)CCCc2ccc3c(n2)NCCC3)C1` [Compound 428], for which the IC50 against αvβ1 and against αvβ6 was less than 100 nM each time.

Consider `O=C(O)C[C@H](NC(=O)[C@@H]1CCCN(CCCc2ccc3c(n2)NCCC3)C1)c1ccccc1C1CC1` [Compound 556], for which the IC50 on αvβ1 and against αvβ6 was 100 to 1000 nM each time.

Turning to `O=C(O)C[C@H](CC(=O)N[C@@H]1CCN(C(=O)CCCc2ccc3c(n2)NCCC3)C1)c1ccccc1` [Compound 416], the IC50 at αvβ1 and against αvβ6 was more than 1000 nM throughout.
